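Compound exposure: 48 hours, 5 concentrations, 96-well plates. GI50 = concentration required for 50% inhibition of growth.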 The source made the active and inactive calls. Cut-off read from the data, not from the text of the source: active = GI50 up to about 1.1 µM and inactive = higher. Where a SMILES comes first, the peptide text is derived from it.
Key:
Experiment in all cases: growth of human tumour cells (NCI), 48 h
[1] = tested on: ACHN
[2] = tested on: COLO 205
[3] = tested on: EKVX
[4] = tested on: HL-60
[5] = tested on: HOP-62
[6] = tested on: K562
[7] = tested on: MCF7
[8] = tested on: MDA-N
[9] = tested on: MOLT-4
[10] = tested on: Malme-3M
[11] = tested on: NCI-H226
[12] = tested on: NCI-H522
[13] = tested on: NCI/ADR-RES
[14] = tested on: PC-3
[15] = tested on: SF-268
[16] = tested on: SK-MEL-28
[17] = tested on: SK-MEL-2
[18] = tested on: SNB-75
[19] = tested on: UACC-62
[20] = tested on: TK-10

Compound | GI50 [1] | GI50 [2] | GI50 [3] | GI50 [4] | GI50 [5] | GI50 [6] | GI50 [7] | GI50 [8] | GI50 [9] | GI50 [10] | GI50 [11] | GI50 [12] | GI50 [13] | GI50 [14] | GI50 [15] | GI50 [16] | GI50 [17] | GI50 [18] | GI50 [19] | GI50 [20]
C1=N\CCNCC/N=C\c2ccc(cc2)OCc2cccc(n2)COc2ccc/1cc2 | 29.7 µM (inactive) | > 100 µM (inactive) | > 100 µM (inactive) | > 100 µM (inactive) | 21.4 µM (inactive) | > 100 µM (inactive) | > 100 µM (inactive) | > 100 µM (inactive) | > 100 µM (inactive) | 90.8 µM (inactive) | > 100 µM (inactive) | 26.9 µM (inactive) | 63.1 µM (inactive) | 78.2 µM (inactive) | 22.2 µM (inactive) | > 100 µM (inactive) | 70.3 µM (inactive) | 23 µM (inactive) | > 100 µM (inactive) | –
COc1ccc(N2C(=O)CC(C3CC(C(C)(C)C)CCC3=O)C2=O)cc1 (centres undefined) | > 100 µM (inactive) | > 100 µM (inactive) | > 100 µM (inactive) | > 100 µM (inactive) | > 100 µM (inactive) | > 100 µM (inactive) | > 100 µM (inactive) | > 100 µM (inactive) | > 100 µM (inactive) | – | > 100 µM (inactive) | 10.7 µM (inactive) | > 100 µM (inactive) | > 100 µM (inactive) | > 100 µM (inactive) | > 100 µM (inactive) | – | > 100 µM (inactive) | > 100 µM (inactive) | > 100 µM (inactive)
CO/N=C(\C(=O)[N-]n1cn[n+](CC(=O)OC(C)(C)C)c1)c1csc(NC(c2ccccc2)(c2ccccc2)c2ccccc2)n1 | > 10 µM (inactive) | > 10 µM (inactive) | > 10 µM (inactive) | > 10 µM (inactive) | > 10 µM (inactive) | > 10 µM (inactive) | > 10 µM (inactive) | > 10 µM (inactive) | > 10 µM (inactive) | > 10 µM (inactive) | > 10 µM (inactive) | > 10 µM (inactive) | > 10 µM (inactive) | > 10 µM (inactive) | > 10 µM (inactive) | > 10 µM (inactive) | > 10 µM (inactive) | > 10 µM (inactive) | – | > 10 µM (inactive)
CCOC(=O)CCSc1nc2ccc(I)cc2c(=O)n1Cc1ccccc1 | 29.5 µM (inactive) | 12.4 µM (inactive) | 22.3 µM (inactive) | 19.5 µM (inactive) | 26.5 µM (inactive) | 24 µM (inactive) | 29.1 µM (inactive) | 25.7 µM (inactive) | – | 17.9 µM (inactive) | 21.6 µM (inactive) | 10.7 µM (inactive) | 23.7 µM (inactive) | 41.7 µM (inactive) | 27.2 µM (inactive) | > 65.6 µM (inactive) | 31 µM (inactive) | 30.3 µM (inactive) | 27.4 µM (inactive) | 39.4 µM (inactive)
CC(C)(C)OC(=O)NC12C3C4C1C1C2C3C41NC(=O)OC(C)(C)C (centres undefined) | > 100 µM (inactive) | > 100 µM (inactive) | 26.9 µM (inactive) | 19.7 µM (inactive) | 50.6 µM (inactive) | 50.4 µM (inactive) | 29.6 µM (inactive) | 61.2 µM (inactive) | 15.2 µM (inactive) | – | – | 63.2 µM (inactive) | 22.5 µM (inactive) | 61.2 µM (inactive) | 35.8 µM (inactive) | 51.4 µM (inactive) | > 100 µM (inactive) | – | 54.3 µM (inactive) | > 100 µM (inactive)
Nc1ccccc1/N=C/c1cc2cc([N+](=O)[O-])ccc2s1 | 11.6 µM (inactive) | 17.8 µM (inactive) | 18.6 µM (inactive) | 7.43 µM (inactive) | 16.8 µM (inactive) | 12.7 µM (inactive) | 5.27 µM (inactive) | 37.8 µM (inactive) | 3.08 µM (inactive) | 26.6 µM (inactive) | – | 15.1 µM (inactive) | 32.1 µM (inactive) | 14.2 µM (inactive) | 14.6 µM (inactive) | 22 µM (inactive) | 12.7 µM (inactive) | 14.4 µM (inactive) | 12.6 µM (inactive) | 15.2 µM (inactive)
O=C1NC(Nc2cccc(Cl)c2)=N/C1=C\c1ccc(Cl)c(Cl)c1 | 5.05 µM (inactive) | 3.88 µM (inactive) | 3.67 µM (inactive) | 1.95 µM (inactive) | 8.79 µM (inactive) | 3.33 µM (inactive) | 3.01 µM (inactive) | 4.52 µM (inactive) | 3.37 µM (inactive) | 14.1 µM (inactive) | 3.44 µM (inactive) | 2.52 µM (inactive) | 4.04 µM (inactive) | 3.66 µM (inactive) | 4.94 µM (inactive) | 12.7 µM (inactive) | 2.44 µM (inactive) | 13.3 µM (inactive) | 10.1 µM (inactive) | 9.35 µM (inactive)
CC1(C)CS(=O)(=O)CC(C)(C)C(=N/N)/C1=N\N | > 100 µM (inactive) | > 100 µM (inactive) | > 100 µM (inactive) | > 100 µM (inactive) | > 100 µM (inactive) | > 100 µM (inactive) | > 100 µM (inactive) | > 100 µM (inactive) | – | > 100 µM (inactive) | – | > 100 µM (inactive) | > 100 µM (inactive) | > 100 µM (inactive) | > 100 µM (inactive) | > 100 µM (inactive) | > 100 µM (inactive) | > 100 µM (inactive) | > 100 µM (inactive) | > 100 µM (inactive)
O=C1Oc2ccccc2C(=O)/C1=C/N1C(=O)CNC1=S | 56.8 µM (inactive) | > 100 µM (inactive) | > 100 µM (inactive) | 44 µM (inactive) | > 100 µM (inactive) | > 100 µM (inactive) | > 100 µM (inactive) | > 100 µM (inactive) | > 100 µM (inactive) | – | > 100 µM (inactive) | > 100 µM (inactive) | > 100 µM (inactive) | > 100 µM (inactive) | > 100 µM (inactive) | > 100 µM (inactive) | > 100 µM (inactive) | – | > 100 µM (inactive) | > 100 µM (inactive)
CC(C)COC(c1ccc2c(c1)OCO2)C(C)Br (centres undefined) | 34 µM (inactive) | 22.6 µM (inactive) | 26.2 µM (inactive) | – | 24.9 µM (inactive) | 46.7 µM (inactive) | 31.4 µM (inactive) | 21.6 µM (inactive) | – | 17.1 µM (inactive) | 26.4 µM (inactive) | 18.7 µM (inactive) | 28.4 µM (inactive) | 30.9 µM (inactive) | 25.2 µM (inactive) | 48.6 µM (inactive) | 21.8 µM (inactive) | 23.1 µM (inactive) | 31.7 µM (inactive) | 30.9 µM (inactive)
CN(C)c1ccc(C(=C2C=CC(=[N+](C)C)C=C2)c2c(O)c(S(=O)(=O)[O-])cc3cc(S(=O)(=O)O)ccc23)cc1 | > 100 µM (inactive) | > 100 µM (inactive) | > 100 µM (inactive) | – | > 100 µM (inactive) | > 100 µM (inactive) | > 100 µM (inactive) | > 100 µM (inactive) | > 100 µM (inactive) | > 100 µM (inactive) | > 100 µM (inactive) | > 100 µM (inactive) | > 100 µM (inactive) | > 100 µM (inactive) | > 100 µM (inactive) | > 100 µM (inactive) | > 100 µM (inactive) | > 100 µM (inactive) | > 100 µM (inactive) | > 100 µM (inactive)
CC(=O)OCC(OC(C)=O)C1C[C@H]2O[C@@H]3[C@H](C[C@H]2O1)O[C@@]1(C[C@@H]3C)C[C@H](C)[C@@H]2O[C@]3(C[C@@H]2O1)C[C@H]1O[C@H]2[C@H](C)[C@H]4OC(=O)CC5CC[C@H]6OC7[C@H]8O[C@]9(CC[C@H]%10CC(O)(CO)[C@H](CC[C@H]%11C[C@@H](C)C(O)(CO)C(C[C@@H]4O[C@H]2C[C@H]1O3)O%11)O%10)CC8O[C@@H]7[C@@H](O9)[C@H]6O5 (some centres undefined) | 0.0479 µM (active) | 0.00445 µM (active) | 0.0234 µM (active) | – | 0.0622 µM (active) | 0.00116 µM (active) | 0.00281 µM (active) | 0.00083 µM (active) | 0.0064 µM (active) | 0.00297 µM (active) | 0.0122 µM (active) | 0.000942 µM (active) | 0.0201 µM (active) | 0.00614 µM (active) | 0.00986 µM (active) | 0.0303 µM (active) | 0.116 µM (active) | 0.00308 µM (active) | 0.00305 µM (active) | –
C=C1C(=O)O[C@@H]2C(=O)[C@@H](C)CCC/C(C)=C/CC[C@@]3(C)O[C@@H]3C[C@@H]12 | 36.9 µM (inactive) | 24 µM (inactive) | 37.7 µM (inactive) | 16.5 µM (inactive) | > 100 µM (inactive) | 16.4 µM (inactive) | 36.3 µM (inactive) | 34.4 µM (inactive) | 28.6 µM (inactive) | 23 µM (inactive) | > 100 µM (inactive) | 12.1 µM (inactive) | 95.3 µM (inactive) | 47 µM (inactive) | – | > 100 µM (inactive) | > 100 µM (inactive) | 0.438 µM (active) | 41.7 µM (inactive) | 27.7 µM (inactive)
CNC(=O)CNC(=O)C(NC(=O)CNC(=O)C1CCCN1C(=O)C(C)NC(=O)C(NC(C)=O)C(C)C)C(C)C (centres undefined) (Ac-VAPGVG-NHMe; configuration not given here) | > 100 µM (inactive) | > 100 µM (inactive) | > 100 µM (inactive) | > 100 µM (inactive) | > 100 µM (inactive) | > 100 µM (inactive) | > 100 µM (inactive) | > 100 µM (inactive) | > 100 µM (inactive) | > 100 µM (inactive) | – | > 100 µM (inactive) | > 100 µM (inactive) | > 100 µM (inactive) | > 100 µM (inactive) | > 100 µM (inactive) | > 100 µM (inactive) | – | > 100 µM (inactive) | > 100 µM (inactive)
